Test results published in ChEMBL document CHEMBL1201862, “PubChem BioAssay data set” (2004).
Values belong to the molecule of their own block, whether it stands above or below them. Calls of active or inactive are those of the source.

Legend:
[1] = molecular target: T1, E3 ubiquitin-protein ligase XIAP (Homo sapiens, UniProt P98170); test: Counter Screen using XIAP-Bir3 for Chemical Antagonists of Bir1/2 domains of IAP-family anti-apoptotic proteins. [Related pubchem assays (depositor defined):AID1018, AID1449, AID1514, AID1638, AID1749, AID1750, AID488957, AID488963]
[2] = molecular target: T1, E3 ubiquitin-protein ligase XIAP; test: small molecules displacing peptide from XIAP – biochemical, IAP family, fluorescence polarization (AID 1018); assay type: functional
Beta-galactosidase = Beta-galactosidase (Escherichia coli, UniProt Q8VNN2); test: Dose response counterscreen for EBI2 assay utilizing the enzyme, b-galactosidase.; assay type: functional
[3] = molecular target: T2, Carboxy-terminal domain RNA polymerase II polypeptide A small phosphatase 1 (Homo sapiens, UniProt Q9GZU7); test: CTDSP1 inhibitors, concentration-response, biochemical, absorbance readout, ultra-high-throughput screen actives (AID 540297); assay type: functional
T2 sequence (Q9GZU7 whole entry): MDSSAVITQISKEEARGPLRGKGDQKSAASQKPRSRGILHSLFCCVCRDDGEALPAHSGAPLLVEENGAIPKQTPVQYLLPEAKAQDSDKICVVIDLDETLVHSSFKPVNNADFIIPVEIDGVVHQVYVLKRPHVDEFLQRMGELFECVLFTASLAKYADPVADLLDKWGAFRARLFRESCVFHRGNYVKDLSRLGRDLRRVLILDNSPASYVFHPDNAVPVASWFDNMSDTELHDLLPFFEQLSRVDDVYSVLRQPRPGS

Genome polyprotein = Genome polyprotein (dengue virus type 2, UniProt P29990); test: flavivirus cap methylation enzyme inhibition – biochemical, confirmation dose response, primary screen (AID 588689); assay type: functional
[4] = molecular target: T3, Voltage-gated N-type calcium channel alpha-1B subunit/Amyloid beta A4 precursor protein-binding family A member 1 (Homo sapiens, UniProt Q00975+Q02410); assay type: protein assay
[5] = molecular target: DNA (cytosine-5)-methyltransferase 1 (Homo sapiens, UniProt P26358); test: inhibition of DNA methylation by DNMT1 – biochemical, fluorescent molecular beacon, confirmation (AID 602386); assay type: functional
[6] = molecular target: Induced myeloid leukemia cell differentiation protein Mcl-1 (Homo sapiens, UniProt Q07820); assay type: functional
[7] = molecular target: T3, Voltage-gated N-type calcium channel alpha-1B subunit/Amyloid beta A4 precursor protein-binding family A member 1; assay type: protein assay; remark: listed apart in the source
[8] = non-specific 3'UTR reporter inhibition in Clone20-Shn3RL – cell-based, Renilla luciferase, cherry-picked, counter-screen for Shn3 inhibitor project, dose response (AID 624133); assay type: functional
[9] = viability of HCT116 lacking mutant beta-catenin – cell-based, human colon tumor, dose response (AID 1045); assay type: functional;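 note: HCT116 colon tumor cells with beta catenin knocked out; cells exposed to compound for 60 hours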
[10] = loss of viability in HepG2 cells – cell-based, CellTiter-Glo, cherry-picked, cytotoxicity control for Shn3 inhibitor project, dose response (AID 624134); assay type: functional
[11] = Trypanosoma cruzi growth suppression in host cells – NIH3T3 host cells, beta-gal luminescence, confirmation (AID 2044); assay type: functional, cell-based;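 note: intracellular parasites grown in NIH/3T3 mouse fibroblasts as host cells; luminescent beta-galactosidase reporter signal from transgenic T. cruzi replicating inside host cells; inhibitors lower the luminescence signal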
[12] = reduction of Shn3 3'UTR-driven luciferase in osteoblasts – cell-based, Clone20 osteoblasts, firefly luciferase, cherry-picked, dose response (AID 624132); assay type: functional;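 note: firefly luciferase luminescence from reporter carrying the Shn3 3'UTR in osteoblasts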
[13] = fluconazole-exposed Candida albicans growth modulators – fluorescence, retest, confirmation (AID 2467); assay type: functional, cell-based
[14] = viability of PTEN-deleted HCT116 cells – cell-based, HCT116 PTEN knockout, dose response (AID 1047); assay type: functional;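 note: HCT116 colon tumor cells with PTEN knocked out; cells exposed to compound for 60 hours before readout; potency for loss of cell viability measured by luminescence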
[15] = molecular target: Heat shock protein HSP 90-alpha (Homo sapiens, UniProt P07900); assay type: functional, organism-based
Large T antigen = Large T antigen (Simian virus 40, UniProt P03070); assay type: functional, Betapolyomavirus macacae;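 note: Confirmatory-stage PubChem screen for compounds that inhibit SV40 T antigen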
[16] = NIH3T3 cell viability loss – ATP luminescence, mouse fibroblasts, counter-screen, dose response (AID 2010); assay type: functional, cell-based;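 note: cells exposed to compound for about 90 hours before reading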
[17] = molecular target: DNA dC->dU-editing enzyme APOBEC-3G (Homo sapiens, UniProt Q9HC16); assay type: functional;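 note: Dose-response counterscreen measuring inhibition of APOBEC3G DNA deaminase activity, run while confirming APOBEC3A inhibitors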
[18] = molecular target: DNA dC->dU-editing enzyme APOBEC-3A (Homo sapiens, UniProt P31941); test: Dose Response confirmation of small molecule APOBEC3A DNA Deaminase Inhibitors via a fluorescence-based single-stranded DNA deaminase assay. [Related pubchem assays (depositor defined):AID493011, AID493024]; assay type: functional
Caspase-6 = molecular target: T4, Caspase-6 (Homo sapiens, UniProt P55212); test: inhibition of CASP6 peptide cleavage – biochemical, VEID-R110 fluorescence, cherry-pick, dose response (AID 720632)
T4 sequence (P55212 whole entry): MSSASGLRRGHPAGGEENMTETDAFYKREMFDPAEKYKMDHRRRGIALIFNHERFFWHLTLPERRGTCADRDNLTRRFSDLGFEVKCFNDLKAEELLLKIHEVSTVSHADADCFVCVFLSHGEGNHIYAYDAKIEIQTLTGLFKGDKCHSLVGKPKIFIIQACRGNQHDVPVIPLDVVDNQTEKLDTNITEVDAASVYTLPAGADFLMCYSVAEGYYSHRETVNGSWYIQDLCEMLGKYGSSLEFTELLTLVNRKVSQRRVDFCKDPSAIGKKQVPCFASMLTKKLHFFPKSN

[19] = molecular target: T5, Tyrosine-protein phosphatase non-receptor type 7 (Homo sapiens, UniProt P35236); test: redox-active compounds inhibiting HePTP phosphatase – biochemical, fluorescence, mechanism study (AID 2068); assay type: functional
T5 sequence (P35236 whole entry): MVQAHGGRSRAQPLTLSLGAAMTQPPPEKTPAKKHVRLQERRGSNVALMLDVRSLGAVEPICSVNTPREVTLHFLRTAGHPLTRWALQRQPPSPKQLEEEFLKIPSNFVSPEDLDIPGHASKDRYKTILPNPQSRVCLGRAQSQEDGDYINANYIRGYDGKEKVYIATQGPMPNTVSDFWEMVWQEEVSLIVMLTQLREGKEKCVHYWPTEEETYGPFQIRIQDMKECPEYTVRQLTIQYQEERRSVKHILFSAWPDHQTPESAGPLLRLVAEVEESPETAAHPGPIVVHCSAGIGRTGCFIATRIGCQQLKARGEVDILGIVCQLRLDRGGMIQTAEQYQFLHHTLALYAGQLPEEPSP

T3 sequence (Q00975 whole entry): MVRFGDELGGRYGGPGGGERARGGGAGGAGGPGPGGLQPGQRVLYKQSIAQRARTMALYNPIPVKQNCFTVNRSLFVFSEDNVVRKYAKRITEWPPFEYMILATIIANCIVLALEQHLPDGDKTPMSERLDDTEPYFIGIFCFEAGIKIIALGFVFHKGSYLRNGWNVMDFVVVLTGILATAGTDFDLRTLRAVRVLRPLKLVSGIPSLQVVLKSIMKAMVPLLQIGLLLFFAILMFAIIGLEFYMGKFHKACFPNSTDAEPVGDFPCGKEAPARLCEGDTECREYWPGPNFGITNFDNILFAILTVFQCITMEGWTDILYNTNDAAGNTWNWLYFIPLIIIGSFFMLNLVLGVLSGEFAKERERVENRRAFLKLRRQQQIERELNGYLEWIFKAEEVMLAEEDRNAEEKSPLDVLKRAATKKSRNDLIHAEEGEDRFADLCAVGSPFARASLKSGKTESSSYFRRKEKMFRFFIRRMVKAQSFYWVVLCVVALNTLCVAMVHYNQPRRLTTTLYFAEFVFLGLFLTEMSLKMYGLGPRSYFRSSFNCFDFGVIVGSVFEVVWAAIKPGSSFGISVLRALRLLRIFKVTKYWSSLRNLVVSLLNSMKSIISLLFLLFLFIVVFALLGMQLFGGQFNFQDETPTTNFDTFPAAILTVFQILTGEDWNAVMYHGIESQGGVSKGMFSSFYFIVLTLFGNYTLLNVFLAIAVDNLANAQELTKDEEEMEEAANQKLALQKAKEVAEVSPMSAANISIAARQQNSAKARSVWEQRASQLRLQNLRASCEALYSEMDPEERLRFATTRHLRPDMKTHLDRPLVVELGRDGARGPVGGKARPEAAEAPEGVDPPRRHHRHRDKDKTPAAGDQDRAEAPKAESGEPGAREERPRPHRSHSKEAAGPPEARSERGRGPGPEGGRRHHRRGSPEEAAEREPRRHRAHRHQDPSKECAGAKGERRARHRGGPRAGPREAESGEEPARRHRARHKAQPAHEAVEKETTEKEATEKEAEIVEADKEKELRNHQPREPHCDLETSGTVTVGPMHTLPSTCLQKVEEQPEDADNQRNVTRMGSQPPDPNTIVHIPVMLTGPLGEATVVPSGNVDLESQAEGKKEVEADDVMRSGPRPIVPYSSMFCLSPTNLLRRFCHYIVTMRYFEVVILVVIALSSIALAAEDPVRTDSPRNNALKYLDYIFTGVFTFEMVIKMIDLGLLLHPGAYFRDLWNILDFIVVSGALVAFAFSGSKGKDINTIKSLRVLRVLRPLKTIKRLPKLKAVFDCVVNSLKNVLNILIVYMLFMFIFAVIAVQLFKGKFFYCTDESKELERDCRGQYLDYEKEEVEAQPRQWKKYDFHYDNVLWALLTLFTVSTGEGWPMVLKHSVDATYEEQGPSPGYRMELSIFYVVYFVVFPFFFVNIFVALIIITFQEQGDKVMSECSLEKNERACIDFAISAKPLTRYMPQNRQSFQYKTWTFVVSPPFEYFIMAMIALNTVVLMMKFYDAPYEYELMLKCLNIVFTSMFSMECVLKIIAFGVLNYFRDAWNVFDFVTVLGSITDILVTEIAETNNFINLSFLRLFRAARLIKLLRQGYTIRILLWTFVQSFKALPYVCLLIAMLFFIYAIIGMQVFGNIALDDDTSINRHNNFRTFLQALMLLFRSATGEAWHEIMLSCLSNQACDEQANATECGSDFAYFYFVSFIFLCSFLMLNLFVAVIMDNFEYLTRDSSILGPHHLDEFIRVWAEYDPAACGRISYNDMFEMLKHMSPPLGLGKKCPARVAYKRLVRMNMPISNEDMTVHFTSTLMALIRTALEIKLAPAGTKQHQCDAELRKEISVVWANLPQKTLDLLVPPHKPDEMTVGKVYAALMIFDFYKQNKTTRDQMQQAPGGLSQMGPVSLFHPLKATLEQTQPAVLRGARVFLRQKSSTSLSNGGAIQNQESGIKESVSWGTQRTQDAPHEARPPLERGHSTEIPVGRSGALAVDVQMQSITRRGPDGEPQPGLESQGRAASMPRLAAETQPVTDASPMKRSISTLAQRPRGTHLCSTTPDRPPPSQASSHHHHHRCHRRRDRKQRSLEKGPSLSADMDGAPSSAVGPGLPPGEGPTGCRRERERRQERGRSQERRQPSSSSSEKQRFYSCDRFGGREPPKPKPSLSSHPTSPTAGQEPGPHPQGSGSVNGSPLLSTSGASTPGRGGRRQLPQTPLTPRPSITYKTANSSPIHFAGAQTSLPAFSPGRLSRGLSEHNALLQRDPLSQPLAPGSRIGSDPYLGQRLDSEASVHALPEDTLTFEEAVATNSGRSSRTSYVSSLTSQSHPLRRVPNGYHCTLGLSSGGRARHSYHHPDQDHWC
T3 sequence (Q02410 whole entry): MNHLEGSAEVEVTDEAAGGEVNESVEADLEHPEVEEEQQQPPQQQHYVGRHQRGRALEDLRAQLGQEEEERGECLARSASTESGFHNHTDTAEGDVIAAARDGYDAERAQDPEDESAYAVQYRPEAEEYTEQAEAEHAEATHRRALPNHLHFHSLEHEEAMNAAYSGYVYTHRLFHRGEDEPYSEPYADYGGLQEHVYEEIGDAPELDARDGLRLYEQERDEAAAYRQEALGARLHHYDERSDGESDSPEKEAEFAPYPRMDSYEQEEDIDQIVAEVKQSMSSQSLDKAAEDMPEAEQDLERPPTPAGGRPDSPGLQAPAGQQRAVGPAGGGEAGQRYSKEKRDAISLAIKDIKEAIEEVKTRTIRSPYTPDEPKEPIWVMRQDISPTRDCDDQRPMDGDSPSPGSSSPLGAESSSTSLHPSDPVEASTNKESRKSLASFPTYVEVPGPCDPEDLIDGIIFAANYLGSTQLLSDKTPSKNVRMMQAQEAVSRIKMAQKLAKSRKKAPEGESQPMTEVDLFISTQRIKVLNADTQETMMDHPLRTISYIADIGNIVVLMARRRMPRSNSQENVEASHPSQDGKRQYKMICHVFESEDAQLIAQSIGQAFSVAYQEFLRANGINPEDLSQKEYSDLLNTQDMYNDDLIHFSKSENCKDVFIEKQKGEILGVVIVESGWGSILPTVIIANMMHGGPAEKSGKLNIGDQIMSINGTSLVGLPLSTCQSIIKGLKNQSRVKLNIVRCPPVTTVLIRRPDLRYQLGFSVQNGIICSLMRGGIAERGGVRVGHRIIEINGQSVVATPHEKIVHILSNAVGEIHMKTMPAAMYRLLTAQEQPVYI
T1 sequence (P98170 whole entry): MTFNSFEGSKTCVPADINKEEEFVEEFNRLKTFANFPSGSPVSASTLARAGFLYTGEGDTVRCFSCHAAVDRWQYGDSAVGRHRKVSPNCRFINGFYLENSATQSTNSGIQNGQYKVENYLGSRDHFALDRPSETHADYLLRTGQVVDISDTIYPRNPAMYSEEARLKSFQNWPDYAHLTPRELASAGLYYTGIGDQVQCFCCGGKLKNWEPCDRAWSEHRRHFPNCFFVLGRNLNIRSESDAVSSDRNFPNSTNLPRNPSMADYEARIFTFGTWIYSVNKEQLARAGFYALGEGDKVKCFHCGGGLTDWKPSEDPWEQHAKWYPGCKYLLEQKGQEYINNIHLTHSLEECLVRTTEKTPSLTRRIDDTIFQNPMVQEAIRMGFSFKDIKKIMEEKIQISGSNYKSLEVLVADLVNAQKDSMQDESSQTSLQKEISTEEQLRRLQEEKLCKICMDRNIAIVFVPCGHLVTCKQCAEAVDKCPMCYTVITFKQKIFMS
Sequence of DNA dC->dU-editing enzyme APOBEC-3G (Q9HC16 whole entry): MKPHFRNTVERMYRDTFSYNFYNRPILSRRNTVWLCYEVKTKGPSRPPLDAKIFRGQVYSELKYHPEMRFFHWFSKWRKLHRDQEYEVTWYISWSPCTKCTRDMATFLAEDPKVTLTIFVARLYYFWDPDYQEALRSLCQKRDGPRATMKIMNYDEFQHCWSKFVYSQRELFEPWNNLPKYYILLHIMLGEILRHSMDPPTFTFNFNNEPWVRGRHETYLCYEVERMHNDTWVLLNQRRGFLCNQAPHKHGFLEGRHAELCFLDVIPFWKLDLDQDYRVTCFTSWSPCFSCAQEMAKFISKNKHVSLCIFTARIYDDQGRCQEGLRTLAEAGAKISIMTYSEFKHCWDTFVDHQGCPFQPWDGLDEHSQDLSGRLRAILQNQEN
Sequence of DNA dC->dU-editing enzyme APOBEC-3A (P31941 whole entry): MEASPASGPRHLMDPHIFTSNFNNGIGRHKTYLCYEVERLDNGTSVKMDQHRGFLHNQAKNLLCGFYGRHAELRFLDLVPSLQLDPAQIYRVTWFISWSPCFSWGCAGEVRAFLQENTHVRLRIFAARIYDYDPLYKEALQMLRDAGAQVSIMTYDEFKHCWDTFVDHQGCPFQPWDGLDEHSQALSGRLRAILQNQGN
Sequence of Large T antigen (P03070 whole entry): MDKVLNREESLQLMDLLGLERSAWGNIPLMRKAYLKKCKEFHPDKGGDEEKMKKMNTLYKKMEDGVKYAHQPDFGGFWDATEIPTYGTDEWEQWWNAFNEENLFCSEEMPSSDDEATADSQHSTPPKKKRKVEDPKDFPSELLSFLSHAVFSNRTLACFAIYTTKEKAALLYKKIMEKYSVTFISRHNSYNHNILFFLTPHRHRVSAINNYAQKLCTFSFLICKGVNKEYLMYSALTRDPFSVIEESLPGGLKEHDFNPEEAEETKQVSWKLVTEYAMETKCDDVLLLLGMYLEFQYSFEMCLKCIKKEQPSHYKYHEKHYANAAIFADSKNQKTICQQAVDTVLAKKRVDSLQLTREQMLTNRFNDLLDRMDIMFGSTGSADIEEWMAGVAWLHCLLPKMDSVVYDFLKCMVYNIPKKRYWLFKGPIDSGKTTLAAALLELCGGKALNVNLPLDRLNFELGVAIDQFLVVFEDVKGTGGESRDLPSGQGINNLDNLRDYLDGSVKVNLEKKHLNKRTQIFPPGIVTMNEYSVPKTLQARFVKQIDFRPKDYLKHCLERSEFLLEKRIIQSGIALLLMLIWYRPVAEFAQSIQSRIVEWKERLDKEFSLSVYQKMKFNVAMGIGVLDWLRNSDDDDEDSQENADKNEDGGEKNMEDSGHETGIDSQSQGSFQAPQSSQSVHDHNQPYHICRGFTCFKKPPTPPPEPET

IC50 [1]: > 100 µM (inactive)
IC50 [2]: > 100 µM (not active)
SMILES: Cc1c(Br)cccc1NC(=O)c1sccc1-n1cccc1

IC50 (Beta-galactosidase): > 80 µM (inactive)
IC50 [1]: > 100 µM (inactive)
IC50 [2]: > 100 µM (not active)
SMILES: O=C(/C=C/c1ccc(Cl)cc1)N1CCN(c2ccc([N+](=O)[O-])c(N3CCOCC3)c2)CC1

IC50 [19]: 452 nM (active)
SMILES: CCCCNC(=O)Nc1ccc2nc(-c3ccco3)c(-c3ccco3)nc2c1

Further lines, the molecule ahead of its results:

SMILES: COc1ccc(-c2csc(NC(=O)CSc3nc(C)nc4sc(C(=O)O)c(C)c34)n2)cc1
IC50 [3]: 4.31 µM (active)
IC50 (Genome polyprotein): 92.7 µM (active)
IC50 [4]: > 56.8 µM (not active)
IC50 [5]: 14.6 µM (active)
IC50 [6]: 7.81 µM (active)
IC50 [7]: > 50 µM (inactive)

SMILES: Cc1ccc(-n2nnnc2C(Cl)(Cl)c2nnnn2-c2ccc(C)cc2)cc1
AC50 [8]: 15.6 µM (active)
IC50 [4]: 4.55 µM (active)
EC50 [9]: 9.11 µM (active)
AC50 [10]: > 70 µM (inactive)
EC50 [11]: 1.11 µM (active)
AC50 [12]: 4.71 µM (active)
EC50 [13]: > 38 µM (not active)
EC50 [14]: 9.09 µM (active)
AC50 [15]: 1.27 µM (active)
IC50 (Large T antigen): 11.1 µM (active)
EC50 [16]: 15 µM (active)
IC50 [7]: 5.57 µM (active)

SMILES: CCN1CCN(S(=O)(=O)c2ccc(Cl)c(C(=O)Nc3ccccc3N3CCOCC3)c2)CC1
IC50 [17]: 3.81 µM (active)
IC50 [18]: 4.8 µM (active)

SMILES: COc1ccccc1NC(=O)COC(=O)c1cc2c(s1)CCC2
IC50 [17]: 51 µM (active)
AC50 (Caspase-6): 5.53 µM (active)
IC50 [18]: 19.1 µM (active)

SMILES: c1cc(CNc2ccc(N3CCOCC3)cc2)ccn1
IC50 [1]: > 100 µM (inactive)
IC50 [2]: > 100 µM (not active)
